Assay results reported in patent US20050037946A1, “Methods and compositions for treating cardiovascular disease using 1722, 10280, 59917, 85553, 10653, 9235, 21668, 17794, 2210, 6169, 10102, 21061, 17662, 1468, 12282, 6350, 9035, 1820, 23652, 7301, 8925, 8701, 3533, 9462, 9123, 12788, 17729, 65552, 1261, 21476, 33770, 9380, 2569654, 33556, 53656, …” (Millennium Pharmaceuticals, Inc., priority 2003, published 2005).

Assays:
10653 mRNA [1] = assay: 10653 mRNA in liver of ApoE knockout mice, cholesterol feeding (TaqMan); format: in vivo; settings: two and six months of cholesterol feeding of ApoE knockout mice
Description: (§1) This example describes the TaqMan™ procedure. The Taqman™ procedure is a quantitative, reverse transcription PCR-based approach for detecting mRNA. The RT-PCR reaction exploits the 5′ nuclease activity of AmpliTaq Gold™ DNA Polymerase to cleave a TaqMan™ probe during PCR. Briefly, cDNA was generated from the samples of interest, e.g., heart, kidney, liver, skeletal muscle, and various vessels, and used as the starting material for PCR amplification. In addition to the 5′ and 3′ gene-specific primers, a gene-specific oligonucleotide probe (complementary to the region being amplified) was included in the reaction (i.e., the Taqman™ probe). […]
(§2) During the PCR reaction, cleavage of the probe separates the reporter dye and the quencher dye, resulting in increased fluorescence of the reporter. Accumulation of PCR products is detected directly by monitoring the increase in fluorescence of the reporter dye. When the probe is intact, the proximity of the reporter dye to the quencher dye results in suppression of the reporter fluorescence. […]

554 mRNA [2] = assay: 554 mRNA in livers of African Green Monkeys, cholesterol; format: in vivo
112091 [3] = assay: 112091 expression in livers of African Green Monkeys, cholesterol; format: in vivo
9325 mRNA [4] = assay: 9325 mRNA in liver of ApoE knockout mice, cholesterol feeding (TaqMan); format: in vivo; settings: two and six months of cholesterol feeding of ApoE knockout mice
Description: as §1, §2

9235 mRNA = 9235 mRNA in livers of African Green Monkeys, cholesterol (TaqMan); format: in vivo; settings: p=0.09
Description: as §1, §2

19319 mRNA [5] = assay: 19319 mRNA in ApoE knock-out mice, cholesterol (TaqMan); format: in vivo
Description: as §1, §2

43969 [6] = assay: 43969 expression in livers of ApoE knock-out mice administered cholesterol (TaqMan); format: in vivo
Description: as §1, §2

6169 mRNA = 6169 mRNA in liver of African Green Monkeys, lipid feeding (TaqMan); format: in vivo; settings: feeding / in the diet
2569654 mRNA [7] = assay: 2569654 mRNA in livers of ApoE knock out mice with cholesterol feeding (TaqMan); format: in vivo; settings: livers of ApoE knock out (KO) mice with cholesterol feeding
Description: as §1, §2

54946 mRNA [8] = assay: 54946 mRNA in livers of Apo E knock out mice, cholesterol (microarray or RT-PCR); format: in vivo; settings: livers of Apo E knock out mice relative to wild-type controls, p=0.001
17729 mRNA [9] = assay: 17729 mRNA in ApoE knockout mouse models, cholesterol feeding (TaqMan); format: in vivo
Description: as §1, §2

10653 mRNA [10] = assay: 10653 mRNA in livers of African Green Monkeys, cholesterol (TaqMan); format: in vivo; settings: p=0.05
Description: as §1, §2

33770 mRNA = 33770 mRNA in livers of mice, ciprofibrate (TaqMan); format: in vivo; settings: p=0.02
Description: as §1, §2

16408 mRNA = 16408 mRNA in livers of mice treated with ciprofibrate (microarray); format: in vivo
42028 = 42028 expression in livers of mice treated with ciprofibrate (microarray); format: in vivo
9380 mRNA [11] = assay: 9380 mRNA in livers of mice treated with ciprofibrate (TaqMan); format: in vivo
Description: as §1, §2

19319 mRNA [12] = assay: 19319 mRNA in livers of mice administered ciprofibrate (TaqMan); format: in vivo
Description: as §1, §2

2552 mRNA [13] = assay: 2552 mRNA in livers of mice (TaqMan); format: in vivo
Description: as §1, §2

43969 [14] = assay: 43969 expression in livers of mice administered ciprofibrate (TaqMan); format: in vivo
Description: as §1, §2

2569654 mRNA [15] = assay: 2569654 mRNA in livers of mice treated with Ciprofibrate (TaqMan); format: in vivo
Description: as §1, §2

54946 mRNA [16] = assay: 54946 mRNA in livers of mice, ciprofibrate (microarray or RT-PCR); format: in vivo; settings: p=0.008
112091 [17] = assay: 112091 expression in livers of wild-type mice treated with ciprofibrate; format: in vivo
554 mRNA [18] = assay: 554 mRNA in livers of mice treated with ciprofibrate (microarray); format: in vivo; settings: livers of treated mice vs control liver samples, p=0.006
7301 mRNA = 7301 mRNA in livers of mice treated with ciprofibrate (TaqMan); format: in vivo; settings: livers of mice during treatment
Description: as §1, §2

8921 mRNA [19] = assay: 8921 mRNA in liver samples of mice treated with ciprofibrate (microarray); format: in vivo; settings: liver samples of treated mice vs control liver samples, p=0.002
9123 mRNA = 9123 mRNA in livers of mice treated with ciprofibrate (TaqMan); format: in vivo; settings: livers of mice during treatment
Description: as §1, §2

8701 mRNA = 8701 mRNA in livers of marmosets treated with lipid-lowering therapies (TaqMan); format: in vivo
8925 mRNA = 8925 mRNA in livers of marmosets treated with lipid-lowering therapies (TaqMan); format: in vivo
8921 mRNA [20] = assay: 8921 mRNA expression in marmosets; format: in vivo
9325 mRNA [21] = assay: 9325 mRNA in livers of marmosets (TaqMan); format: in vivo
Description: as §1, §2

3533 mRNA = 3533 mRNA regulation by lipid lowering drugs (TaqMan)
Description: (§3) This example describes the TaqMan™ procedure. The Taqman™ procedure is a quantitative, reverse transcription PCR-based approach for detecting mRNA. The RT-PCR reaction exploits the 5′ nuclease activity of AmpliTaq Gold™ DNA Polymerase to cleave a TaqMan™ probe during PCR. Briefly, cDNA was generated from the samples of interest, e.g., heart, kidney, liver, skeletal muscle, and various vessels, and used as the starting material for PCR amplification. In addition to the 5′ and 3′ gene-specific primers, a gene-specific oligonucleotide probe (complementary to the region being amplified) was included in the reaction (i.e., the Taqman™ probe). The TaqMan™ probe includes the oligonucleotide with a fluorescent reporter dye covalently linked to the 5′ end of the probe (such as FAM (6-carboxyfluorescein), TET (6-carboxy4,7,2′,7′-tetrachlorofluorescein), JOE (6-carboxy-4,5-dichloro-2,7-dimethoxyfluorescein), or VIC) and a quencher dye (TAMRA (6-carboxy-N,N,N′,N′-tetramethylrhodamine) at the 3′ end of the probe.
(§4) During the PCR reaction, cleavage of the probe separates the reporter dye and the quencher dye, resulting in increased fluorescence of the reporter. Accumulation of PCR products is detected directly by monitoring the increase in fluorescence of the reporter dye. When the probe is intact, the proximity of the reporter dye to the quencher dye results in suppression of the reporter fluorescence. During PCR, if the target of interest is present, the probe specifically anneals between the forward and reverse primer sites. The 5′-3′ nucleolytic activity of the AmpliTaq™ Gold DNA Polymerase cleaves the probe between the reporter and the quencher only if the probe hybridizes to the target. The probe fragments are then displaced from the target, and polymerization of the strand continues. The 3′ end of the probe is blocked to prevent extension of the probe during PCR. […] RNA was prepared using the trizol method and treated with DNase to remove contaminating genomic DNA. cDNA was synthesized using standard techniques.

2552 mRNA [22] = assay: 2552 mRNA in marmoset livers (TaqMan); format: in vivo
9462 mRNA = 9462 mRNA regulation by lipid lowering drugs (TaqMan)
Description: as §1, §2

21668 mRNA = 21668 mRNA in marmoset models treated with cholesterol lowering agents (TaqMan); format: in vivo
9380 mRNA [23] = assay: 9380 mRNA in livers of marmosets (TaqMan); format: in vivo
10653 mRNA [24] = assay: 10653 mRNA in livers of marmosets treated with lipid-lowering therapies (TaqMan); format: in vivo
53656 mRNA = 53656 mRNA in livers of Marmosets (TaqMan); format: in vivo
2569654 mRNA [25] = assay: 2569654 mRNA in marmoset models (TaqMan); format: in vivo
Description: as §3, §4

10102 mRNA = 10102 mRNA regulation by lipid lowering drugs (TaqMan)
17729 mRNA [26] = assay: 17729 mRNA in marmoset models (TaqMan); format: in vivo
19319 mRNA [27] = assay: 19319 mRNA in livers of marmosets (TaqMan); format: in vivo
[28] = test system: serine/threonine kinase Akt; settings: primary human peripheral blood monocytes; cited from earlier work
Syk = assay: 1673 (Syk) expression in monocytes and macrophages (TaqMan); format: cell-based; settings: monocytes or macrophages
Description: as §1, §2

33556 mRNA = 33556 mRNA in cultured human macrophages (TaqMan); format: cell-based; settings: 18h of stimulation
Description: as §1, §2

261 mRNA = 261 mRNA in cultured human monocytes and macrophages (TaqMan); format: cell-based
Description: as §1, §2

9035 mRNA = 9035 mRNA in cultured human monocytes and macrophages (TaqMan); format: cell-based; settings: 18 hours of stimulation
Description: as §1, §2

12282 mRNA = 12282 mRNA in cultured human monocytes and macrophages (TaqMan); format: cell-based; settings: 18 hours of stimulation
Description: as §1, §2

In the case of CC(C)CCC[C@@H](C)[C@H]1CC[C@H]2[C@@H]3CC=C4C[C@@H](O)CC[C@]4(C)[C@H]3CC[C@]12C [cholesterol], the “10653 mRNA downregulated” value (10653 mRNA [1]) is reported as 1.3 fold, the “554 mRNA expression” value (554 mRNA [2]) is reported as “down-regulated” and the 112091 expression 112091 [3] is reported as “down-regulated”. For the same compound, the “9325 mRNA downregulated” value (9325 mRNA [4]) was 1.8 fold, the “9235 mRNA downregulated” value (9235 mRNA) was 1.3 fold and the “19319 mRNA expression” value (19319 mRNA [5]) was “downregulated”. The 43969 expression 43969 [6] was “downregulated”, the “6169 mRNA downregulated” value (6169 mRNA) was 1.3 fold and the “2569654 mRNA expression” value (2569654 mRNA [7]) was “significantly downregulated”. The “54946 mRNA downregulated” value (54946 mRNA [8]) was 0.62 fold, the “17729 mRNA expression” value (17729 mRNA [9]) was “downregulated” and the “10653 mRNA downregulated” value (10653 mRNA [10]) was 1.5 fold.
For CC(C)(Oc1ccc(C2CC2(Cl)Cl)cc1)C(=O)O (centres unmarked) [ciprofibrate], the “33770 mRNA downregulated” value (33770 mRNA) was 0.76 fold, the “16408 mRNA expression” value (16408 mRNA) was “down-regulated” and the 42028 expression 42028 was “down-regulated”. For the same compound, the “9380 mRNA expression” value (9380 mRNA [11]) was “downregulated”, the “19319 mRNA expression” value (19319 mRNA [12]) was “upregulated” and the “2552 mRNA expression” value (2552 mRNA [13]) was “downregulate”. The 43969 expression 43969 [14] was “downregulated”, the “2569654 mRNA expression” value (2569654 mRNA [15]) was “significantly downregulated” and the “54946 mRNA upregulated” value (54946 mRNA [16]) was 2.0 fold. For the same compound, the 112091 expression 112091 [17] was “down-regulated”, the “554 mRNA downregulated” value (554 mRNA [18]) was 0.68 fold and the “7301 mRNA expression” value (7301 mRNA) was “down-regulated”. For the same compound, the “8921 mRNA downregulated” value (8921 mRNA [19]) was 0.59 fold and the “9123 mRNA expression” value (9123 mRNA) was “upregulated”.
With cholestyramine the “8701 mRNA expression” value (8701 mRNA) was “upregulated”, the “8925 mRNA expression” value (8925 mRNA) was “upregulated” and the “increase in 8921 mRNA expression” value (8921 mRNA [20]) was 1.5 fold. The “9325 mRNA upregulated” value (9325 mRNA [21]) was 1.4 fold, the “3533 mRNA expression” value (3533 mRNA) was “significantly downregulated” and the “2552 mRNA expression” value (2552 mRNA [22]) was “upregulated”. For the same compound, the “9462 mRNA expression” value (9462 mRNA) was “upregulated”, the “21668 mRNA expression” value (21668 mRNA) was “marked increase” and the “9380 mRNA expression” value (9380 mRNA [23]) was “upregulated”. The “10653 mRNA expression” value (10653 mRNA [24]) was “downregualted”, the “53656 mRNA upregulated” value (53656 mRNA) was 1.8 fold and the “2569654 mRNA expression” value (2569654 mRNA [25]) was “upregulated”. For the same compound, the “10102 mRNA expression” value (10102 mRNA) was “significantly upregulated”, the “17729 mRNA expression” value (17729 mRNA [26]) was “upregulated” and the “19319 mRNA expression” value (19319 mRNA [27]) was “upregulated”.
In the case of interferon gamma, the “phosphorylation of the serine/threonine kinase Akt” value [28] is listed as “induces”, the Syk expression (Syk) is listed as “No apparent upregulation” and the “33556 mRNA expression” value (33556 mRNA) is listed as “upregulated”. For the same compound, the “261 mRNA expression” value (261 mRNA) was “downregulated”, the “9035 mRNA expression” value (9035 mRNA) was “upregulated” and the “12282 mRNA expression” value (12282 mRNA) was “upregulated”.
